Results: patent US4990497A, “Antifungal antibiotics” (priority 1989, dated 1991)
In brackets after ≈: the same amount, converted by molar mass. Entries after “also recorded” stand apart in the source; their conditions may differ. Read-outs that look alike come from different tables or passages of the source.

Key:
[1] = system: Candida albicans; test: Antifungal MIC, serial agar dilution (Sabouraud dextrose agar), Candida albicans; assay type: cell-based
[2] = system: Aspergillus fumigatus; test: Antifungal MIC, serial agar dilution (Sabouraud dextrose agar), Aspergillus fumigatus; assay type: cell-based
[3] = system: Trichophyton mentagrophytes; test: Antifungal MIC, serial agar dilution (Sabouraud dextrose agar), Trichophyton mentagrophytes; assay type: cell-based
[4] = system: Cryptococcus neoformans; test: Antifungal MIC, serial agar dilution (Sabouraud dextrose agar), Cryptococcus neoformans; assay type: cell-based
[5] = system: Piricularia oryzae; test: microbe, parasite or virus in culture; assay type: cell-based
[6] = system: Sporothrix schenckii; test: Antifungal MIC, serial agar dilution (Sabouraud dextrose agar), Sporothrix schenckii; assay type: cell-based
[7] = system: Fusarium moniliforme; test: Antifungal MIC, serial agar dilution (Sabouraud dextrose agar), Fusarium moniliforme; assay type: cell-based; settings: Fusarium verticillioides
[8] = system: Candida albicans; test: Antifungal MIC, broth dilution (Sabouraud dextrose broth), Candida albicans
Method: (§1) The minimum inhibitory concentrations (MICs) against various fungi were determined by serial agar and broth dilution methods using Sabouraud dextrose agar and broth. The inoculum size of the test organism was adjusted to 10^5 CFUs/ml (BU-3608) or 10^5 -10^9 CFUs/ml (BU-3608 B and C) in the agar dilution method, and 10^4 -10^5 CFUs/ml (BU-3608) or 10^4 -10^6 CFUs/ml (BU-3608 B and C) in the broth dilution method.
(§2) ^(1) Determined after incubation for 72 hours at 28° C.
(§3) ^(2) Inoculum size: 10^5 CFU/ml for agar dilution and 10^4
-10^5 CFU/ml for broth dilution.
(§4) ^(3) Values in parenthesis indicate partial inhibition.
(§5) *Determined after incubation for 48-72 hours at 28° C.
(§6) **Inoculum size : 10^4 -10^6 CFU/ml for broth dilution and
10^5 -10^9 CFU/ml for agar dilution.
(§7) Values in parenthesis indicate partial inhibition.

[9] = system: Aspergillus fumigatus; test: Antifungal MIC, broth dilution (Sabouraud dextrose broth), Aspergillus fumigatus
Method: as §1, §2, §3
-10^5 CFU/ml for broth dilution.
as §4, §5, §6
10^5 -10^9 CFU/ml for agar dilution.
as §7

[10] = system: Trichophyton mentagrophytes; test: Antifungal MIC, broth dilution (Sabouraud dextrose broth), Trichophyton mentagrophytes
Method: as §1, §2, §3
-10^5 CFU/ml for broth dilution.
as §4, §5, §6
10^5 -10^9 CFU/ml for agar dilution.
as §7

[11] = system: Candida albicans A9540; test: In vivo antifungal activity, Candida albicans intravenous infection in mice; set-up: species or system mice (male ICR); settings: for ED50: Candida albicans, read-out: PD50; for Number of survivors/tested: iv just after challenge
Method: The methyl and ethyl esters of BU-3608 were also evaluated against C. albicans A9540 infections in mice using the protocol described above. […] It is postulated that these esters are hydrolyzed in vivo to provide the active parent compound.

[12] = system: influenza virus A; test: Cytopathic effect (CPE) reduction assay, influenza virus A in MDCK cells; assay type: cell-based; settings: unidentified influenza virus, 72 h, read-out: ID50 (CPE reduction)
[13] = in vitro; settings: dog, mdck
[14] = system: Cryptococcus neoformans; test: Antifungal MIC, broth dilution (Sabouraud dextrose broth), Cryptococcus neoformans
Method: as §1, §2, §3
-10^5 CFU/ml for broth dilution.
as §4, §5, §6
10^5 -10^9 CFU/ml for agar dilution.
as §7

[15] = system: Cryptococcus neoformans IAM 4514; test: In vivo antifungal activity, Cryptococcus neoformans intravenous infection in mice; settings: IAM4514, in Mus musculus, im, 480 h, read-out: PD50
Method: In vivo activities of BU-3608, BU-3608 B, and BU-3608 C were tested against Candida albicans, Aspergillus fumigatus, and Cryptococcus neoformans infections in mice. Test organisms were cultured for 18 hours at 28° C. in YGP medium (yeast extract, glucose, peptone, K2 HPO4, MgSO4) and then suspended in saline. Male ICR mice weighing 20 to 24 g were infected intravenously with about 20 times (BU-3608) or 10 times (BU-3608 B and C) the median lethal dose of the test fungi. The antibiotics at various dose levels were administered to groups of 5 mice each either intravenously just after the fungal infection or intramuscularly twice a day on days 0 and 1. The dose that protects 50% of the animals from infection (PD50, mg/kg) was calculated from survival rates recorded on the 20th day after the fungal challenge.
**Compounds were administered im b.i.d. on days 0 and 1.

[16] = Acute toxicity in mice; assay type: in vivo
Method: The acute toxicity of BU-3608 was determined in mice after single intravenous and intramuscular administrations.

[17] = Solubility; assay type: physicochemical; settings: free form
[18] = in vitro; settings: monkey, vero cells
[19] = system: Mucor spinosus; test: Antifungal MIC, serial agar dilution (Sabouraud dextrose agar), Mucor spinosus; settings: IFO5317, 72 h
Method: as §1, §2

[20] = system: Aspergillus flavus; test: Antifungal MIC, serial agar dilution (Sabouraud dextrose agar), Aspergillus flavus; settings: 72 h
Method: as §1, §2

[21] = system: Petriellidium boydii; test: Antifungal MIC, serial agar dilution (Sabouraud dextrose agar), Petriellidium boydii; settings: Scedosporium boydii, IFO8073, 72 h
Method: as §1, §2

[22] = system: Blastomyces dermatitidis; test: Antifungal MIC, serial agar dilution (Sabouraud dextrose agar), Blastomyces dermatitidis; settings: 72 h
Method: as §1, §2

[23] = Candida albicans A9540, 48-72 h at 28° C., 10^5-10^9 CFU/ml
[24] = Candida albicans IAM4888, 48-72 h at 28° C., 10^5-10^9 CFU/ml
[25] = Aspergillus fumigatus IAM2034, 48-72 h at 28° C., 10^5-10^9 CFU/ml
[26] = Aspergillus fumigatus IAM2530, 48-72 h at 28° C., 10^5-10^9 CFU/ml
[27] = Trichophyton mentagrophytes #4329, 48-72 h at 28° C., 10^5-10^9 CFU/ml
[28] = Trichophyton mentagrophytes D155, 48-72 h at 28° C., 10^5-10^9 CFU/ml
[29] = Cryptococcus neoformans D49, 48-72 h at 28° C., 10^5-10^9 CFU/ml
[30] = Cryptococcus neoformans IAM4514, 48-72 h at 28° C., 10^5-10^9 CFU/ml
[31] = Sporothrix schenckii IFO8158, 48-72 h at 28° C., 10^5-10^9 CFU/ml
[32] = Fusarium moniliforme A2284, 48-72 h at 28° C., 10^5-10^9 CFU/ml
[33] = read-out: MIC, partial inhibition (value in parenthesis)
[34] = IAM2034, read-out: MIC, partial inhibition (value in parenthesis)
[35] = dose 3.1 mg/kg/inj., day 20, challenge 20x (BU-3608) or 10x (B, C) median lethal dose
[36] = dose 6.3 mg/kg/inj., day 20, challenge 20x (BU-3608) or 10x (B, C) median lethal dose
[37] = dose 12.5 mg/kg/inj., day 20, challenge 20x (BU-3608) or 10x (B, C) median lethal dose
[38] = dose 25 mg/kg/inj., day 20, challenge 20x (BU-3608) or 10x (B, C) median lethal dose
[39] = dose 50 mg/kg/inj., day 20, challenge 20x (BU-3608) or 10x (B, C) median lethal dose

`COc1cc(O)c2c(c1)C(=O)c1c(cc3c(c1O)-c1c(cc(C)c(C(=O)N[C@H](C)C(=O)O)c1O)C(O[C@@H]1O[C@H](C)[C@H](N)[C@H](O[C@@H]4OC[C@@H](O)[C@H](O)[C@H]4O)[C@H]1O)C3O)C2=O` (stereo partly shown) gave an MIC [1, 23] of 6.3 µg/mL (≈ 7.62 µM), an MIC [1, 24] of 6.3 µg/mL (≈ 7.62 µM) and an MIC [2, 25] of 6.3 µg/mL (≈ 7.62 µM). For the same compound, the MIC [2, 26] was 3.1 µg/mL (≈ 3.75 µM), the MIC [3, 27] was 6.3 µg/mL (≈ 7.62 µM) and the MIC [3, 28] was 3.1 µg/mL (≈ 3.75 µM). It also gave an MIC [4, 29] of 0.8 µg/mL (≈ 0.968 µM), an MIC [4, 30] of 0.8 µg/mL (≈ 0.968 µM) and an MIC [5] of 3.1 µg/mL (≈ 3.75 µM). For the same compound, the MIC [6, 31] was 1.6 µg/mL (≈ 1.94 µM), the MIC [7, 32] was 6.3 µg/mL (≈ 7.62 µM) and the MIC [8] was 6.3 µg/mL (≈ 7.62 µM). The MIC [8, 33] was 3.1 µg/mL (≈ 3.75 µM), the MIC ([9]; IAM2034) was 6.3 µg/mL (≈ 7.62 µM) and the MIC [9, 34] was 3.1 µg/mL (≈ 3.75 µM). For the same compound, the MIC [10] was 6.3 µg/mL (≈ 7.62 µM) and the MIC [10, 33] was 1.3 µg/mL (≈ 1.57 µM).

For `CN[C@@H]1[C@H](O)[C@@H](O)[C@H](OC2c3cc(C)c(C(=O)N[C@H](C)C(=O)O)c(O)c3-c3c(cc4c(c3O)C(=O)c3cc(OC)cc(O)c3C4=O)C2O)O[C@@H]1C` (stereo partly shown) [BU-3608 B], the MIC [1, 23] was 3.1 µg/mL (≈ 4.37 µM), the MIC [1, 24] was 1.6 µg/mL (≈ 2.26 µM) and the MIC [2, 25] was 6.3 µg/mL (≈ 8.89 µM). For the same compound, the MIC [2, 26] was 6.3 µg/mL (≈ 8.89 µM), the MIC [3, 27] was 6.3 µg/mL (≈ 8.89 µM) and the MIC [3, 28] was 6.3 µg/mL (≈ 8.89 µM). For the same compound, the MIC [4, 29] was 0.8 µg/mL (≈ 1.13 µM), the MIC [4, 30] was 0.8 µg/mL (≈ 1.13 µM) and the MIC ([5]; 48-72 h at 28° C., read-out: MIC) was 6.3 µg/mL (≈ 8.89 µM). For the same compound, the MIC [6, 31] was 3.1 µg/mL (≈ 4.37 µM), the MIC [7, 32] was greater than 100 µg/mL and the ED50 ([11]; A9540, im, 480 h) was 22 mg/kg. For the same compound, the ED50 ([11]; A9540, iv, 480 h) was 11 mg/kg, the Number of survivors/tested [11, 35] was 0/5 and the Number of survivors/tested [11, 36] was 0/5. For the same compound, the Number of survivors/tested [11, 37] was 3/5, the Number of survivors/tested [11, 38] was 3/5 and the Number of survivors/tested [11, 39] was 4/5. The IC50 [12] was 8.4 µg/mL (≈ 11.9 µM), the CC50 at 72 h [13] was greater than 100 µg/mL and the MIC [8] was 3.1 µg/mL (≈ 4.37 µM). It also gave an MIC [8, 33] of 3.1 µg/mL (≈ 4.37 µM), an MIC ([9]; IAM2034) of 50 µg/mL (≈ 70.6 µM) and an MIC [9, 34] of 12.5 µg/mL (≈ 17.6 µM). It also gave an MIC ([14]; IAM4514) of 1.6 µg/mL (≈ 2.26 µM), an ED50 [15] of 11 mg/kg and an MIC [10] of 6.3 µg/mL (≈ 8.89 µM). For the same compound, the MIC [10, 33] was 3.1 µg/mL (≈ 4.37 µM).

`CN[C@@H]1[C@H](O[C@@H]2OC[C@@H](O)[C@H](O)[C@H]2O)[C@@H](O)[C@H](OC2c3cc(C)c(C(=O)N[C@H](C)C(=O)O)c(O)c3-c3c(cc4c(c3O)C(=O)c3cc(OC)cc(O)c3C4=O)C2O)O[C@@H]1C` (stereo partly shown) [BU-3608] gave an MIC ([1]; Candida albicans A9540, 72 h at 28° C., 10^5 CFU/ml) of 25 µg/mL (≈ 29.7 µM), an MIC ([1]; Candida albicans IAM4888, 72 h at 28° C., 10^5 CFU/ml) of 25 µg/mL (≈ 29.7 µM) and an MIC ([2]; Aspergillus fumigatus IAM2034, 72 h at 28° C., 10^5 CFU/ml) of 3.1 µg/mL (≈ 3.69 µM). It also gave an MIC ([2]; Aspergillus fumigatus IAM2530, 72 h at 28° C., 10^5 CFU/ml) of 3.1 µg/mL (≈ 3.69 µM), an MIC ([3]; 72 h, Trichophyton mentagrophytes #4329, 72 h at 28° C., 10^5 CFU/ml) of 25 µg/mL (≈ 29.7 µM) and an MIC ([3]; 72 h, Trichophyton mentagrophytes D155, 72 h at 28° C., 10^5 CFU/ml) greater than 100 µg/mL. The MIC ([4]; Cryptococcus neoformans D49, 72 h at 28° C., 10^5 CFU/ml) was 0.8 µg/mL (≈ 0.951 µM), the MIC ([4]; Cryptococcus neoformans IAM4514, 72 h at 28° C., 10^5 CFU/ml) was 0.8 µg/mL (≈ 0.951 µM) and the MIC ([5]; 72 h) was 3.1 µg/mL (≈ 3.69 µM). The MIC ([6]; Sporothrix schenckii IFO8158, 72 h at 28° C., 10^5 CFU/ml) was 0.8 µg/mL (≈ 0.951 µM), the MIC ([7]; Fusarium moniliforme A2284, 72 h at 28° C., 10^5 CFU/ml) was 3.1 µg/mL (≈ 3.69 µM) and the ED50 ([11]; A9540, 480 h, iv just after fungal challenge, day 20, challenge 20x (BU-3608) or 10x (B, C) median lethal dose) was 7.2 mg/kg. The Number of survivors/tested ([11]; dose 1.6 mg/kg/inj., day 20, challenge 20x median lethal dose) was 1/5, the Number of survivors/tested [11, 35] was 2/5 and the Number of survivors/tested [11, 36] was 2/5. For the same compound, the Number of survivors/tested [11, 37] was 5/5, the Number of survivors/tested [11, 38] was 5/5 and the Number of survivors/tested [11, 39] was 5/5. For the same compound, the IC50 [12] was 4.4 µg/mL (≈ 5.23 µM), the sign of toxicity ([16]; mice, single im dose of 400 mg/kg) was “no sign of toxicity” and the LD50 ([16]; mouse, in vivo, iv) was 140 mg/kg. For the same compound, the Solubility [17] was “Soluble in dimethyl sulfoxide, dimethyl formamide, acidic and alkaline water; also recorded: Slightly soluble in water, methanol, and ethanol; also recorded: Insoluble in ethyl acetate, chloroform, benzene, n-hexane, and petroleum ether”, the CC50 at 72 h [18] was greater than 100 µg/mL and the CC50 at 72 h [13] was greater than 100 µg/mL. The MIC ([8]; 72 h) was 6.3 µg/mL (≈ 7.49 µM), the MIC [19] was 50 µg/mL (≈ 59.5 µM) and the MIC ([9]; IAM2034, 72 h) was 12.5 µg/mL (≈ 14.9 µM). The MIC [20] was 1.6 µg/mL (≈ 1.9 µM), the MIC ([14]; IAM4514, 72 h) was 0.4 µg/mL (≈ 0.476 µM) and the ED50 [15] was 3.5 mg/kg. The MIC [21] was 100 µg/mL (≈ 119 µM), the MIC ([10]; 72 h) was 25 µg/mL (≈ 29.7 µM) and the MIC ([10]; 72 h, read-out: MIC, partial inhibition (value in parenthesis)) was 6.3 µg/mL (≈ 7.49 µM). It also gave an MIC [22] of 6.3 µg/mL (≈ 7.49 µM).
